According to patent US8592421B2, “Cyclic bioisosters of purine system derivatives and a pharmaceutical composition based thereon” (priority 2003, dated 2013):

Tests used:
[1] = Chronic toxicity of suppositories: biochemical indexes of blood serum; format: in vivo, rats; conditions: male rats, suppositories, 1 month; for Cholesterol in blood serum: control 3.02 ± 0.08; for Urea in blood serum: control 8.44 ± 0.60; for Glucose in blood serum: control 9.76 ± 0.15; for ALT in blood serum: control 11.33 ± 1.96; for AST in blood serum: control 19.13 ± 1.02; for Bilirubin in blood serum: control 35.93 ± 2.19; for Creatinine in blood serum: control 40.23 ± 2.84; for Alkalinous phosphatase in blood serum: control 40.74 ± 1.57; for Total protein in blood serum: control 94.89 ± 6.67;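 on all read-outs here: inbred rats dosed rectally with softened suppositories, controls given matching volumes of sterile medical liquid paraffin, serum sampled one month into a two-month dosing course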
Protocol: (§1) The experiments were conducted on inbred rats.
(§2) Two doses of preparations used in the experiments: 50 mg/kg and 500 mg/kg. Before the administration, the suppositories were softened by heating in a glass water bath at a temperature of 38-39° C., the soft mass was collected in tuberculin syringe in a volume of 1 ml, a needle with oliva was attached to the syringe, and the preparatory mass was introduced into the rectum of the animal for a depth of 1.5-2.0 cm. The animals of the control group were administered with sterile medical liquid paraffin in a volume corresponding to the volume of the investigated suppository. A complete course of administration of drugs to the animals was two months. A complex of laboratory diagnostic investigations was carried out one month after the beginning of the administration of the preparation to the animal—in a middle of the course (8 animals), two months after ending the course (8 animals) and three months after ending the recovery period of one month (8 animals). The mass of the body of the rats in the first month of administration of the preparation was determined weekly, and then once in two weeks. On the basis of the dynamics of an index of the mass of the animal body, the volume of preparation being administered was corrected taking into account the test dose.

[2] = Chronic toxicity of suppositories: indexes of peripheral blood; format: in vivo, rats; conditions: male rats, suppositories rectally; for Basophiles / Juveniles: 1 month/2 months (one value given), control 0
Protocol: as §1, §2

[3] = test system: embryonic fibroblasts of mouse NIH-3T3; assay: Effect on endocellular pHi of fibroblasts (microspectrofluorimetry with FDA / BCECF-AM); format: cell-based; conditions: for rise of pHi: fibroblasts in an attached spread state; for change of pHi: medium DME without blood serum, 20 minutes; for increase of pHi of cytosol: medium with 10.0% blood serum, 20 minutes after addition
Procedure, shortened: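 Mouse NIH-3T3 embryonic fibroblasts, grown at 37° C. under 5.0% carbon dioxide in DMEM with 2.2 g/l sodium bicarbonate, 80.0 mkg/ml gentamicin and 10.0% embryonal veal serum, were loaded with FDA or BCECF-AM. Intracellular pH was measured by microspectrofluorimetry at 37° C., exciting at λ=490 nm and taking the ratio of emissions at λ=535 nm and λ=570 nm, averaged over 40-60 cells and calibrated with nigericyn in high-potassium buffers.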

## Nc1cccc2c(=O)[nH][nH]c(=O)c12.[Na] [Compound 15, sodium salt of 5-amino-benzo[d]-3H-pyridazine-1,4-dione]
[1]; 50 mg/kg
  Cholesterol in blood serum: 2.01 ± 0.50 mmol/L
  Urea in blood serum: 10.33 ± 0.51 Mkmol/l
  Glucose in blood serum: 10 ± 0.41 mM
  ALT in blood serum: 7.63 ± 1.95 unit/l
  AST in blood serum: 19.49 ± 2.90 unit/1
  Bilirubin in blood serum: 43.07 ± 3.57 mmol/L
  Creatinine in blood serum: 45.59 ± 2.68 mkmol/l
  Alkalinous phosphatase in blood serum: 40.74 ± 6.78 unit/l
  Total protein in blood serum: 90.22 ± 6.78 g/L
[1]; 500 mg/kg
  Cholesterol in blood serum: 2.30 ± 0.57 mmol/L
  Urea in blood serum: 10.89 ± 0.73 Mkmol/l
  Glucose in blood serum: 10.7 ± 0.41 mM
  ALT in blood serum: 9.48 ± 1.85 unit/l
  AST in blood serum: 15.14 ± 1.58 unit/1
  Bilirubin in blood serum: 40.69 ± 15.75 mmol/L
  Creatinine in blood serum: 48.27 ± 12.29 mkmol/l
  Alkalinous phosphatase in blood serum: 41.60 ± 2.26 unit/l
  Total protein in blood serum: 71.56 ± 8.23 g/L
[2]; 50 mg/kg
  Basophiles: 0%
  Juveniles: 0%
[2]; 50 mg/kg, 1 month, control 0.8 ± 0.4
  Stab neutrophil: 1.2 ± 0.5%
[2]; 50 mg/kg, 1 month, control 2.2 ± 0.4
  REE: 1.8 ± 0.4 mm/h
[2]; 50 mg/kg, 1 month, control 2.8%0.3
  Reticulocytes: 2.6 ± 0.2%
[2]; 50 mg/kg, 1 month, control 4.0 + 0.3
  Eosinophiles: 3.2 ± 1.0%
[2]; 50 mg/kg, 1 month, control 5.6 ± 0.1
  Erythrocytes: 5.7 ± 0.2 mln/mm^3
[2]; 50 mg/kg, 1 month, control 10.5 ± 0.2
  Hemoglobin: 10.6 ± 0.2 mmol/L
[2]; 50 mg/kg, 1 month, control 17.4 ± 1.3
  Leukocyte: 14.8 ± 2.0 thousand/mm^3
[2]; 50 mg/kg, 1 month, control 45.9 ± 1.7
  Haematocrite: 47.9 ± 1.4%
[2]; 50 mg/kg, 1 month, control 81.4 ± 1.7
  Average volume of erythrocytes: 84.4 ± 1.5 Mkm^3
[2]; 50 mg/kg, 1 month, control 152 ± 10.2
  Coagulation, time: 140 ± 12.2 s
[2]; 50 mg/kg, 2 months, control 1.4 ± 0.2
  REE: 1.6 ± 0.2 mm/h
[2]; 50 mg/kg, 2 months, control 2.4 ± 0.4
  Stab neutrophil: 0.8 ± 0.5%
[2]; 50 mg/kg, 2 months, control 2.9 ± 0.2
  Reticulocytes: 3.0 ± 0.1%
[2]; 50 mg/kg, 2 months, control 4.4 + 1.2
  Eosinophiles: 3.6 ± 1.2%
[2]; 50 mg/kg, 2 months, control 6.1 ± 0.1
  Erythrocytes: 6.0 ± 0.1 mln/mm^3
[2]; 50 mg/kg, 2 months, control 11.4 ± 0.2
  Hemoglobin: 11.2 ± 0.1 mmol/L
[2]; 50 mg/kg, 2 months, control 19.1 ± 1.9
  Leukocyte: 16.3 ± 1.0 thousand/mm^3
[2]; 50 mg/kg, 2 months, control 45.9 ± 1.8
  Haematocrite: 47.5 ± 1.2%
[2]; 50 mg/kg, 2 months, control 74.6 + 1.9
  Average volume of erythrocytes: 78.6 ± 1.5 Mkm^3
[2]; 50 mg/kg, 2 months, control 316 ± 8
  Coagulation, time: 321 ± 12 s
[2]; 500 mg/kg
  Basophiles: 0%
  Juveniles: 0%
[2]; 500 mg/kg, 1 month, control 0.8 ± 0.4
  Stab neutrophil: 0.8 ± 0.5/0.8 ± 0.5%
[2]; 500 mg/kg, 1 month, control 2.2 ± 0.4
  REE: 2.2 ± 0.4 mm/h
[2]; 500 mg/kg, 1 month, control 2.8%0.3
  Reticulocytes: 3.1 ± 0.2%
[2]; 500 mg/kg, 1 month, control 4.0 + 0.3
  Eosinophiles: 3.0 ± 1.0%
[2]; 500 mg/kg, 1 month, control 5.6 ± 0.1
  Erythrocytes: 5.7 ± 0.1 mln/mm^3
[2]; 500 mg/kg, 1 month, control 10.5 ± 0.2
  Hemoglobin: 10.6 ± 0.2 mmol/L
[2]; 500 mg/kg, 1 month, control 17.4 ± 1.3
  Leukocyte: 17.0 ± 1.4 thousand/mm^3
[2]; 500 mg/kg, 1 month, control 45.9 ± 1.7
  Haematocrite: 47.6 ± 1.3%
[2]; 500 mg/kg, 1 month, control 81.4 ± 1.7
  Average volume of erythrocytes: 82.6 ± 1.1 Mkm^3
[2]; 500 mg/kg, 1 month, control 152 ± 10.2
  Coagulation, time: 151 ± 6.4 s
[2]; 500 mg/kg, 2 months, control 1.4 ± 0.2
  REE: 1.8 ± 0.4 mm/h
[2]; 500 mg/kg, 2 months, control 2.4 ± 0.4
  Stab neutrophil: 0.8 ± 0.5/0.8 ± 0.5%
[2]; 500 mg/kg, 2 months, control 2.9 ± 0.2
  Reticulocytes: 3.3 ± 0.3%
[2]; 500 mg/kg, 2 months, control 4.4 + 1.2
  Eosinophiles: 3.2 ± 1.4%
[2]; 500 mg/kg, 2 months, control 6.1 ± 0.1
  Erythrocytes: 6.7 ± 0.2 mln/mm^3
[2]; 500 mg/kg, 2 months, control 11.4 ± 0.2
  Hemoglobin: 12.5 ± 0.4 mmol/L
[2]; 500 mg/kg, 2 months, control 19.1 ± 1.9
  Leukocyte: 21.1 ± 2.4 thousand/mm^3
[2]; 500 mg/kg, 2 months, control 45.9 ± 1.8
  Haematocrite: 53.9 ± 2.1%
[2]; 500 mg/kg, 2 months, control 74.6 + 1.9
  Average volume of erythrocytes: 80.21 ± 1.2 Mkm^3
[2]; 500 mg/kg, 2 months, control 316 ± 8
  Coagulation, time: 308 ± 16 s
[3]; 2.0 mkg/ml, on the average
  rise of pHi: 0.10 unit pHi
  change of pHi: 0.08 unit pHi
  increase of pHi of cytosol: 0.12 unit pH
[3]; 20.0 mkg/ml, on the average
  rise of pHi: 0.07 unit pHi
  change of pHi: 0.08 unit pHi
[3]; 0.02 mkg/ml
  change of pHi: no effect was found
  increase of pHi of cytosol: do not initiate a change of pH
[3]; 0.2 mkg/ml
  change of pHi: no effect was found
[3]; 200 mkg/ml
  change of pHi: no effect was found
[3]; 1000 mkg/ml
  change of pHi: no effect was found
[3]; 0.2 mkg/ml, on the average
  increase of pHi of cytosol: 0.1 unit pH
[3]; 20.0 mkg/ml
  increase of pHi of cytosol: do not initiate a change of pH
